Reference: patent publication US9707305B2, “Formulas for diagnosing and treating hormone-dependent cancers and cancers of the organs responsible for steroid hormone synthesis” (Commissariat à l'énergie atomique et aux énergies …, priority 2011, dated 2017)

Legend:
[1] = Biodistribution of the nano-emulsion of Example 1.1 in male mice (Tables 15 to 21); format: in vivo; conditions: FVB male mouse
Protocol: (§1) In the following examples, the radioactivity was counted with the TRiCarb Counter (Ref: Packard, Liquid Scintillation Analyzers; Models 2200CA).
Fluobeam 700 (Fluoptics) is the apparatus with which the whole of the organs from the biodistribution were analyzed in fluorescence as well as the one with which the biodistribution kinetics of the nano-emulsions were established in vivo. This imaging system allows viewing of the fluorescence in spectral bands from 700 to 850 nm for a 650 nm excitation. The apparatus consists of an electric case containing the laser of class 3B, its power supply and an optical head containing the CCD camera. […]

[2] = Biodistribution of the mixture of three free tracers (not formulated as nano-emulsion), comparative; format: in vivo; conditions: FVB female mouse
Protocol: as §1
Fluobeam 700 (Fluoptics) is the apparatus with which the whole of the organs from the biodistribution were analyzed in fluorescence as well as the one with which the biodistribution kinetics of the nano-emulsions were established in vivo. This imaging system allows viewing of the fluorescence in spectral bands from 700 to 850 nm for a 650 nm excitation. The apparatus consists of an electric case containing the laser of class 3B, its power supply and an optical head containing the CCD camera.
As a comparison, a mixture of three tracers ([3H]CHE, [14C]CO and DiD) (not formulated as a nano-emulsion) was injected in order to observe the distribution of the tracers in the absence of droplets being used as a distribution carrier.

[3] = 2 h after injection of free tracers (not nano-emulsion)
[4] = 6 h after injection of free tracers (not nano-emulsion)
[5] = 16 h after injection of free tracers (not nano-emulsion)
[6] = 24 h after injection of free tracers (not nano-emulsion)

## CCCCCCCCCCCCCCCCO[C@H]1CC[C@@]2(C)C(=CC[C@H]3[C@@H]4CC[C@H]([C@H](C)CCCC(C)C)[C@@]4(C)CC[C@@H]32)C1 [[3H]CHE, cholesteryl hexadecylether]
[1]; Salivary gland, 72 h
  tracer in Salivary gland: 2.36 percentage of the dose injected per gram of tissue
[1]; 4 h
  tracer in Seminal gland: 0.50 percentage of the dose injected per gram of tissue
  tracer in Spleen: 5.31 percentage of the dose injected per gram of tissue
  tracer in Testicle: 1.35 percentage of the dose injected per gram of tissue
[1]; 6 h
  tracer in Seminal gland: 0.54 percentage of the dose injected per gram of tissue
  tracer in Spleen: 6.453 percentage of the dose injected per gram of tissue
  tracer in Testicle: 2.000 percentage of the dose injected per gram of tissue
[1]; 16 h
  tracer in Seminal gland: 0.64 percentage of the dose injected per gram of tissue
  tracer in Spleen: 9.19 percentage of the dose injected per gram of tissue
  tracer in Testicle: 2.95 percentage of the dose injected per gram of tissue
[1]; 24 h
  tracer in Seminal gland: 0.35 percentage of the dose injected per gram of tissue
  tracer in Spleen: 6.65 percentage of the dose injected per gram of tissue
[1]; 48 h
  tracer in Seminal gland: 0.35 percentage of the dose injected per gram of tissue
  tracer in Spleen: 11.18 percentage of the dose injected per gram of tissue
  tracer in Testicle: 2.97 percentage of the dose injected per gram of tissue
[1]; 72 h
  tracer in Seminal gland: 0.58 percentage of the dose injected per gram of tissue
  tracer in Spleen: 6.40 percentage of the dose injected per gram of tissue
  tracer in Testicle: 4.34 percentage of the dose injected per gram of tissue
[1]; Seminal glands, 2 h
  tracer in Seminal glands: 0.79 percentage of the dose injected per gram of tissue
[1]; 2 h
  tracer in Spleen: 7.15 percentage of the dose injected per gram of tissue
  tracer in Testicle: 1.36 percentage of the dose injected per gram of tissue
[2]; [3]
  biodistribution, Adrenal glands (MEAN): 0.17 % of injected dose per gram of
  biodistribution, Brain (MEAN): 0.00 % of injected dose per gram of
  biodistribution, Fat (MEAN): 0.02 % of injected dose per gram of
  biodistribution, Heart (MEAN): 0.08 % of injected dose per gram of
  biodistribution, Intestine (MEAN): 0.03 % of injected dose per gram of
  biodistribution, Kidney (MEAN): 0.09 % of injected dose per gram of
  biodistribution, Liver (MEAN): 1.76 % of injected dose per gram of
  biodistribution, Lung (MEAN): 29.10 % of injected dose per gram of
  biodistribution, Muscle (MEAN): 0.04 % of injected dose per gram of
  biodistribution, Ovary (MEAN): 0.04 % of injected dose per gram of
  biodistribution, Pancreas (MEAN): 0.05 % of injected dose per gram of
  biodistribution, Salivary gland (MEAN): 0.01 % of injected dose per gram of
  biodistribution, Spleen (MEAN): 1.55 % of injected dose per gram of
  biodistribution, Uterus (MEAN): 0.02 % of injected dose per gram of
[2]; [4]
  biodistribution, Adrenal glands (MEAN): 0.36 % of injected dose per gram of
  biodistribution, Brain (MEAN): 0.02 % of injected dose per gram of
  biodistribution, Fat (MEAN): 0.05 % of injected dose per gram of
  biodistribution, Heart (MEAN): 0.30 % of injected dose per gram of
  biodistribution, Intestine (MEAN): 0.15 % of injected dose per gram of
  biodistribution, Kidney (MEAN): 0.41 % of injected dose per gram of
  biodistribution, Liver (MEAN): 3.23 % of injected dose per gram of
  biodistribution, Lung (MEAN): 83.99 % of injected dose per gram of
  biodistribution, Muscle (MEAN): 0.03 % of injected dose per gram of
  biodistribution, Ovary (MEAN): 0.07 % of injected dose per gram of
  biodistribution, Pancreas (MEAN): 0.09 % of injected dose per gram of
  biodistribution, Salivary gland (MEAN): 0.09 % of injected dose per gram of
  biodistribution, Uterus (MEAN): 0.04 % of injected dose per gram of
[2]; [5]
  biodistribution, Adrenal gland (MEAN): 0.47 % of injected dose per gram of
  biodistribution, Brain (MEAN): 0.02 % of injected dose per gram of
  biodistribution, Fat (MEAN): 0.02 % of injected dose per gram of
  biodistribution, Heart (MEAN): 0.35 % of injected dose per gram of
  biodistribution, Intestine (MEAN): 0.13 % of injected dose per gram of
  biodistribution, Kidney (MEAN): 0.53 % of injected dose per gram of
  biodistribution, Liver (MEAN): 6.95 % of injected dose per gram of
  biodistribution, Lung (MEAN): 124.35 % of injected dose per gram of
  biodistribution, Muscle (MEAN): 0.05 % of injected dose per gram of
  biodistribution, Ovary (MEAN): 0.19 % of injected dose per gram of
  biodistribution, Pancreas (MEAN): 0.04 % of injected dose per gram of
  biodistribution, Salivary gland (MEAN): 0.05 % of injected dose per gram of
  biodistribution, Spleen (MEAN): 4.17 % of injected dose per gram of
  biodistribution, Uterus (MEAN): 0.03 % of injected dose per gram of
[2]; [6]
  biodistribution, Adrenal gland (MEAN): 0.31 % of injected dose per gram of
  biodistribution, Brain (MEAN): 0.03 % of injected dose per gram of
  biodistribution, Fat (MEAN): 1.42 % of injected dose per gram of
  biodistribution, Heart (MEAN): 0.12 % of injected dose per gram of
  biodistribution, Intestine (MEAN): 0.07 % of injected dose per gram of
  biodistribution, Kidney (MEAN): 1.12 % of injected dose per gram of
  biodistribution, Liver (MEAN): 1.12 % of injected dose per gram of
  biodistribution, Lung (MEAN): 6.37 % of injected dose per gram of
  biodistribution, Muscle (MEAN): 0.11 % of injected dose per gram of
  biodistribution, Ovary (MEAN): 0.08 % of injected dose per gram of
  biodistribution, Pancreas (MEAN): 0.03 % of injected dose per gram of
  biodistribution, Salivary gland (MEAN): 0.14 % of injected dose per gram of
  biodistribution, Spleen (MEAN): 10.63 % of injected dose per gram of
  biodistribution, Uterus (MEAN): 0.34 % of injected dose per gram of
[2]; Tables 2 to 5 (2 to 24 h), free tracers
  accumulation of the free radioactive tracers in the lungs: strong accumulation
